Paper PMC6956362 (ACS Medicinal Chemistry Letters, 2019)

What was measured:
[1] = Stability in PBS, RP-HPLC analysis; format: physicochemical; conditions: pH 7.4, 22 °C, up to 48 h
CHO-hNTS1R cells = test: Confocal microscopy at live CHO-hNTS1R cells; format: cell-based, Chinese hamster; conditions: for unspecific binding: 22–25 °C, in the presence of 1 (100-fold excess)

Compound | stability [1] | unspecific binding (CHO-hNTS1R cells) | cellular uptake (CHO-hNTS1R cells; 200 nM, 22-25 °C, CHO-hNTS1R cells)
CC[C@H](C)[C@H](NC(=O)[C@H](Cc1ccc(O)cc1)NC(=O)[C@@H]1CCCN1C(=O)[C@H](CCCNC(=N)N)NC(=O)[C@@H](N)CCCNC(=N)NC(=O)NCCOCCOCC[n+]1c(C)cc(/C=C/C=C/c2ccc(N(C)C)cc2)cc1C)C(=O)N[C@@H](CC(C)C)C(=O)O [compound 14] | minor decomposition after incubation times >24 h | very low | –
CC[C@H](C)[C@H](NC(=O)[C@H](Cc1ccc(O)cc1)NC(=O)[C@@H]1CCCN1C(=O)[C@H](CCCNC(=N)N)NC(=O)[C@@H](N)CCCNC(=N)NC(=O)NCCOCCOCCNC(=O)CCCCCN1\C(=C/C=C/C=C/C2=[N+](CCCCS(=O)(=O)[O-])c3ccccc3C2(C)C)C(C)(C)c2ccccc21)C(=O)N[C@@H](CC(C)C)C(=O)O [compound 11] | excellent stabilities | very low | –
CC[C@H](C)[C@H](NC(=O)[C@H](Cc1ccc(O)cc1)NC(=O)[C@@H]1CCCN1C(=O)[C@H](CCCNC(=N)NC(=O)NCCOCCOCCNC(=O)CCCCCN1/C(=C/C=C/C=C/C2=[N+](CCCCS(=O)(=O)[O-])c3ccccc3C2(C)C)C(C)(C)c2cc(S(=O)(=O)O)ccc21)NC(=O)[C@@H](N)CCCNC(=N)N)C(=O)N[C@@H](CC(C)C)C(=O)O [compound 17] | excellent stabilities | – | –
CCNC(=O)CCCCCN1/C(=C/C=C/C=C/C2=[N+](CCCCS(=O)(=O)[O-])c3ccccc3C2(C)C)C(C)(C)c2cc(S(=O)(=O)O)ccc21 [compound 20] | – | – | no uptake
CC[C@H](C)[C@H](NC(=O)[C@H](Cc1ccc(O)cc1)NC(=O)[C@@H]1CCCN1C(=O)[C@H](CCCNC(=N)N)NC(=O)[C@@H](N)CCCNC(=N)NC(=O)NCCCCNC(=O)CCCCCN1\C(=C/C=C/C=C/C2=[N+](CCCCS(=O)(=O)[O-])c3ccccc3C2(C)C)C(C)(C)c2cc(S(=O)(=O)O)ccc21)C(=O)N[C@@H](CC(C)C)C(=O)O [compound 6, N-(N-[4-{N-(6-[3,3-Dimethyl-6-sulfonato-2-{5-(3,3-dimethyl-1-[4-sulfonatobutyl]-3H-indol-1-ium-2-yl)penta-2,4-dien-1-ylidene}indolin-1-yl]hexanoyl)amino}butyl]aminocarbonyl)-Arg-Arg-Pro-Tyr-Ile-Leu bis(hydrotrifluoroacetate)] | excellent stabilities | very low | –
